In brackets after ≈: the same amount, converted by molar mass. Several values for one entry are separate records, joined by “and”; a condition that tells them apart may be missing. Equal values may be shown once. Read-outs that look alike come from different tables or passages of the source.
What was measured:
Alternaria kikuchiana = assay: microbe, parasite or virus in culture; type: cell-based
Botrytis cinerea = assay: microbe, parasite or virus in culture; type: cell-based
[1] = tested on: Colletotrichum lagenarium; assay: microbe, parasite or virus in culture; type: cell-based; details: Colletotrichum orbiculare
Fusarium oxysporum = assay: microbe, parasite or virus in culture; type: cell-based
Magnaporthe grisea [2] = assay: microbe, parasite or virus in culture; type: cell-based; details: Pyricularia oryzae
Pythium ultimum = assay: microbe, parasite or virus in culture; type: cell-based; details: Globisporangium ultimum
Rhizoctonia solani = assay: microbe, parasite or virus in culture; type: cell-based
Magnaporthe grisea [3] = type: in vivo; details: RCB rice blast, infected leaf area after 7 days
Corticium sasaki = type: in vivo; details: after 8 days
Phytophthora infestans = type: in vivo; details: for In vivo control values: TLB tomato late blight, after 4 days
Puccinia recondita = type: in vivo
[4] = Acute toxicity test, oral, mice; type: in vivo; details: male, mouse, in vivo, ICR mice, single administration, 7 days observation
Method: (§1) To perform an acute toxicity test of Chloranthus henryi extract and the sesquiterpene compound of formula (1), 6-week-old ICR mice (♂, 25 g, Korean Bio Corp.) were divided into 4 groups with two mice per each group, and raised under the condition of 22±3° C., 55±10% (humidity), 12L/12D (intensity of illumination). The mice were adapted for 1 week, and freely fed with foods for test animals (Jeil Feed Corp., Korea, for mouse and rat) and sterilized water.
(§2) Chloranthus henryi extract and the sesquiterpene compound of formula (1) were dissolved in a small amount of dimethyl sulfoxide (DMSO), and diluted with 1% carboxylmethyl cellulose. Four groups of mice were orally administered with 540 mg/kg, 180 mg/kg, 60 mg/kg and 20 mg/kg, respectively. Control group was administered with 1% carboxylmethyl cellulose. For 7 days after the administration, the presence of side effects or mortality was observed as follows. […] The changes in clinical signs and mortality of animals after administration were observed twice everyday for 7 days, i.e., in the morning and in the afternoon.
(§3) Further, the internal organs of the dead mice were examined through macroscopic observation after necropsy on the 7th day. The change in body weight of animals by Chloranthus henryi extract and sesquiterpene compound of formula (1) was observed everyday after administration.

ICR mice = assay: Acute toxicity test, oral, mice; type: in vivo
Method: as §1, §2, §3

C/C=C(\C)C(=O)OC[C@]1(O)[C@H]2C[C@H]2[C@]2(C)[C@@H]3CC4=C5[C@H](/C(=C(\C)C(=O)OC)C(=O)[C@H](O)[C@@]5(C)[C@@H]5C[C@H]45)[C@@]34OC(=O)C(COC(C)=O)=C4C[C@@H]12 [CHE-23C]
MIC (Alternaria kikuchiana): 8 mg/L (≈ 11.8 µM) | MIC (Botrytis cinerea): 8 mg/L (≈ 11.8 µM) | MIC [1]: 8 mg/L (≈ 11.8 µM) | MIC (Fusarium oxysporum): 16 mg/L (≈ 23.6 µM) | MIC (Magnaporthe grisea [2]): 4 mg/L (≈ 5.91 µM) | MIC (Pythium ultimum): 1 mg/L (≈ 1.48 µM) | MIC (Rhizoctonia solani): 16 mg/L (≈ 23.6 µM) | In vivo control values (Magnaporthe grisea [3]; 11 ppm spray): 67% | In vivo control values (Magnaporthe grisea [3]; 33 ppm spray): 50% | In vivo control values (Magnaporthe grisea [3]; 100 ppm spray): 72% | In vivo control values (Corticium sasaki): 69% and 50% | control values in the greenhouse experiments (in words) (Phytophthora infestans; Phytophthora infestans, greenhouse): potent control values | In vivo control values (Phytophthora infestans; 11 ppm spray): 29% | In vivo control values (Phytophthora infestans; 33 ppm spray): 91% | In vivo control values (Phytophthora infestans; 100 ppm spray): 93% | In vivo control values (Puccinia recondita; after 7 days): 100% and 87% and 80% | control values in the greenhouse experiments (in words) (Puccinia recondita; in vivo): potent control values | LD50 at 7 days [4]: > 540 mg/kg | mortality in the maximum dosage group (ICR mice; 540 mg/kg, 7 days): all the mice in the maximum dosage group (540 mg/kg) survived | gross findings caused by the test materials (ICR mice; 20-540 mg/kg, all treated groups, necropsy on the 7th day): no significant gross findings

— US7491415B2 (priority 2005, dated 2009)
